What all share (experiment): KinomeScan profiling
What all share (assay type): binding

Assay [1] concerns the target T1, ABL1(H396P)-phosphorylated (Homo sapiens, UniProt P00519, H396P).
T1 construct: purchased KinomeScan®
The settings on record: read-out: % control. The procedure, abridged: (§1)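 1 μM cpd in DMSO; 468-kinase panel; readout RLU. % ctrl = (cpd − pos ctrl)/(neg ctrl − pos ctrl) ×100. Pos ctrl = 0%, DMSO = 100%. Hit cut-off <35%.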

A further assay concerns the target EIF2AK1 (Homo sapiens, UniProt Q9BQI3). The conditions noted are these: EIF2AK1, 1 μM; read-out: % control. The procedure, abridged: as §1
A further assay has as its target T2, EPHA3 (Homo sapiens, UniProt P29320).
T2 sequence (P29320 21-983): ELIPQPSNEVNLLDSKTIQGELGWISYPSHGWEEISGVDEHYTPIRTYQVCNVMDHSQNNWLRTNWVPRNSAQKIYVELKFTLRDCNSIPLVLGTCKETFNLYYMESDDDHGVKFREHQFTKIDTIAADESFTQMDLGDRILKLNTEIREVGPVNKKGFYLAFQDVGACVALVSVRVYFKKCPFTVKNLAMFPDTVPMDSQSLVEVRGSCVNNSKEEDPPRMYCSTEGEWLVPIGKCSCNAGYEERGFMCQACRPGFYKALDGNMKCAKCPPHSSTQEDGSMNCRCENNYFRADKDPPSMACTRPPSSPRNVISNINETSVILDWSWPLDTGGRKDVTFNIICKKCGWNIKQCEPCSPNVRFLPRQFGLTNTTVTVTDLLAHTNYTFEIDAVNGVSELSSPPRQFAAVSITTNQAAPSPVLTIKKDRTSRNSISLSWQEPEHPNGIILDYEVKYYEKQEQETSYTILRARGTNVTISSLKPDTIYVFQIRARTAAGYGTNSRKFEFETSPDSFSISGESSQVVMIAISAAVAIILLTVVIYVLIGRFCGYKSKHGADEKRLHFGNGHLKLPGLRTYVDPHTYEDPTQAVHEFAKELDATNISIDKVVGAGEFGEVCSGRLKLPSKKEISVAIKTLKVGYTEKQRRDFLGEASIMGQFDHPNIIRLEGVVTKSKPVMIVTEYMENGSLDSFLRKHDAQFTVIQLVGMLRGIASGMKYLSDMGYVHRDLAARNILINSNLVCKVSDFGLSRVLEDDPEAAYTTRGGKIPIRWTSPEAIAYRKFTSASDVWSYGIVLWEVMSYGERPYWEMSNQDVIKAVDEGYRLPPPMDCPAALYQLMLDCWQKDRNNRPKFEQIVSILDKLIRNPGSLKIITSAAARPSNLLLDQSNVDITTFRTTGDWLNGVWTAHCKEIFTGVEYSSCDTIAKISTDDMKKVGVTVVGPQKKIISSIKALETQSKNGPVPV
The settings on record: EPHA3, 1 μM; read-out: % control. The procedure, abridged:
as §1

The next assay deals with EPHA5 (Homo sapiens, UniProt P54756). The conditions noted are these: EPHA5, 1 μM; read-out: % control. In outline:
as §1

A further assay addresses FLT4 (Homo sapiens, UniProt P35916). The conditions noted are these: FLT4, 1 μM; read-out: % control. In outline:
as §1

The target in a further assay is MRCKA (Homo sapiens, UniProt Q5VT25). The settings on record: read-out: % control. In outline: as §1
Sequence of MRCKA (Q5VT25 whole entry): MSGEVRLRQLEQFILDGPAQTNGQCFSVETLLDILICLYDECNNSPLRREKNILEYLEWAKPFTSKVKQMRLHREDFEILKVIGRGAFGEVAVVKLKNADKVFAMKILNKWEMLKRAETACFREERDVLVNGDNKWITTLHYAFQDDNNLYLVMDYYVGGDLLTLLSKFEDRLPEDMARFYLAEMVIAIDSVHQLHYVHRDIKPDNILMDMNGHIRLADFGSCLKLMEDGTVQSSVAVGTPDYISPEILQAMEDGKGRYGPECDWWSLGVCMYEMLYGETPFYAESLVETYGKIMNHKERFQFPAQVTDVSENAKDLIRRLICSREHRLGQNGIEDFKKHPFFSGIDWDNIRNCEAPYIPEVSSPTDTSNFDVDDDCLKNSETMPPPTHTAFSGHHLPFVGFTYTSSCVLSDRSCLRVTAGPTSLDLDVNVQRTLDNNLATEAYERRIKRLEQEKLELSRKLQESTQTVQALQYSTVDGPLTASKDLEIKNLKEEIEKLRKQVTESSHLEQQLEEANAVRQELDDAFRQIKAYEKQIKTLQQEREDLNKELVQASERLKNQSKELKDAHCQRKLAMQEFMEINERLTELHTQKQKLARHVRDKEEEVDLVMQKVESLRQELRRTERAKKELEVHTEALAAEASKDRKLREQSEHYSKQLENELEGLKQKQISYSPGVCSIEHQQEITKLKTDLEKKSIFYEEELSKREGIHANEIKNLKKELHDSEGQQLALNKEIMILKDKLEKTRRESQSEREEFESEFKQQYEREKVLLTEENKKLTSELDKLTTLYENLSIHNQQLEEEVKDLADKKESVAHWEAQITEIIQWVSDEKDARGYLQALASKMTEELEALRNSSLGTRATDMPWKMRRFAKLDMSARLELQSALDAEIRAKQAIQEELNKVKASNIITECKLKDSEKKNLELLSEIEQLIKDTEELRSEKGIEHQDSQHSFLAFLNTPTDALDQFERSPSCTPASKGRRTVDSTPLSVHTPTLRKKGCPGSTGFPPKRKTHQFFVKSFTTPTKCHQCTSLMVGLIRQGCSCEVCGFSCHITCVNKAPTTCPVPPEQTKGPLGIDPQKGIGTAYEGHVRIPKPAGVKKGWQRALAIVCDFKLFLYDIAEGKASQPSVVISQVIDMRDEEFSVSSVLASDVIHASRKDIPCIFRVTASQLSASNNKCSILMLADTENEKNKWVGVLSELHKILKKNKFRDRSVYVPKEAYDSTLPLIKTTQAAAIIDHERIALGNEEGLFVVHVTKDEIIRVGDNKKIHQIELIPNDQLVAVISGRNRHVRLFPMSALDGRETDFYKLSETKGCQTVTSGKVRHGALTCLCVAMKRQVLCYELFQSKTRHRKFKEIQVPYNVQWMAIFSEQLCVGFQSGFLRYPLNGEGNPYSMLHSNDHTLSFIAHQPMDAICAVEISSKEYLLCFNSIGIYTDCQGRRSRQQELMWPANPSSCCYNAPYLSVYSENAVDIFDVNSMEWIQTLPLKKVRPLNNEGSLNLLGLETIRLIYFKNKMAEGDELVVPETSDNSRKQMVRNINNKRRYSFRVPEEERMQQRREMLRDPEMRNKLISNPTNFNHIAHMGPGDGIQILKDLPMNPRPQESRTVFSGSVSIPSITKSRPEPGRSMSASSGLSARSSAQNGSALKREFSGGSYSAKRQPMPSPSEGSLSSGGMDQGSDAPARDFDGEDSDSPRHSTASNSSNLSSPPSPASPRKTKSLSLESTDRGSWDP
The target of the next assay is RET(V804L) (Homo sapiens, UniProt P07949, V804L). The settings on record: read-out: % control. In outline: as §1
The target of a further assay is TRKB (Homo sapiens, UniProt Q16620). The settings on record: read-out: % control. The procedure, abridged: as §1
For a further assay, the target named is T3, ULK2 (Homo sapiens, UniProt Q8IYT8).
T3 sequence (Q8IYT8 1-1036): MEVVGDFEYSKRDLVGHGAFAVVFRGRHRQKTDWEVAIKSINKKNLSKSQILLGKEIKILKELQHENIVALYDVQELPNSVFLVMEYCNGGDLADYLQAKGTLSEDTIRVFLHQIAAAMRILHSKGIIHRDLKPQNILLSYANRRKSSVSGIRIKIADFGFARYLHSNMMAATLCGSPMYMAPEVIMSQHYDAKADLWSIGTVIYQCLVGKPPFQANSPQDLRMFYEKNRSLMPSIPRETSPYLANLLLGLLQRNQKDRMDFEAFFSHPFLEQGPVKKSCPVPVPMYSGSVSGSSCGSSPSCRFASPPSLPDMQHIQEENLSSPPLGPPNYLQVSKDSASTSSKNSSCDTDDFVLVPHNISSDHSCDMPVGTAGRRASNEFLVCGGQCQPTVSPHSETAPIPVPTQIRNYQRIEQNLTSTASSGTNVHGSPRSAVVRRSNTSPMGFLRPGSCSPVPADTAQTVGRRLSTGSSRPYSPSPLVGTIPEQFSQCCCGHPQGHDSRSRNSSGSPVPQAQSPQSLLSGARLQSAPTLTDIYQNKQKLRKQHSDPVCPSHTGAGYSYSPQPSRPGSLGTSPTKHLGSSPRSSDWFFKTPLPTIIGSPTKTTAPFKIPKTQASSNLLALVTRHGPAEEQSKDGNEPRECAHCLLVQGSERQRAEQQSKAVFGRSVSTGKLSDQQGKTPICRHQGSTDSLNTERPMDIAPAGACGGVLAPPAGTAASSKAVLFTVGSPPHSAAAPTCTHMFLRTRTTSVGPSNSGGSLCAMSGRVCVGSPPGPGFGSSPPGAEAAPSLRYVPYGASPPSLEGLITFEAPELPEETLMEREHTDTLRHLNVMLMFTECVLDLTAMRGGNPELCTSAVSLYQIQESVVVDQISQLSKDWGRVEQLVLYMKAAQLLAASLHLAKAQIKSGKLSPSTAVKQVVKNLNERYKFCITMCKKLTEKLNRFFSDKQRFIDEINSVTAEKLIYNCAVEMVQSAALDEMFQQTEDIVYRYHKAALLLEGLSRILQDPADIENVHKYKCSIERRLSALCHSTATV
The conditions noted are these: ULK2, 1 μM; read-out: % control. The procedure, abridged: as §1

For another assay, the target named is WNK3 (Homo sapiens, UniProt Q9BYP7). The conditions noted are these: WNK3, 1 μM; read-out: % control. The procedure, abridged: as §1

Remaining binding data for three compounds are collected here from US12275731B2, “Azaindole inhibitors of wild-type and mutant forms of LRRK2” (DANA-FARBER CANCER INSTITUTE, INC., priority 2018, dated 2025).

Sequence of EIF2AK1 (Q9BQI3 whole entry): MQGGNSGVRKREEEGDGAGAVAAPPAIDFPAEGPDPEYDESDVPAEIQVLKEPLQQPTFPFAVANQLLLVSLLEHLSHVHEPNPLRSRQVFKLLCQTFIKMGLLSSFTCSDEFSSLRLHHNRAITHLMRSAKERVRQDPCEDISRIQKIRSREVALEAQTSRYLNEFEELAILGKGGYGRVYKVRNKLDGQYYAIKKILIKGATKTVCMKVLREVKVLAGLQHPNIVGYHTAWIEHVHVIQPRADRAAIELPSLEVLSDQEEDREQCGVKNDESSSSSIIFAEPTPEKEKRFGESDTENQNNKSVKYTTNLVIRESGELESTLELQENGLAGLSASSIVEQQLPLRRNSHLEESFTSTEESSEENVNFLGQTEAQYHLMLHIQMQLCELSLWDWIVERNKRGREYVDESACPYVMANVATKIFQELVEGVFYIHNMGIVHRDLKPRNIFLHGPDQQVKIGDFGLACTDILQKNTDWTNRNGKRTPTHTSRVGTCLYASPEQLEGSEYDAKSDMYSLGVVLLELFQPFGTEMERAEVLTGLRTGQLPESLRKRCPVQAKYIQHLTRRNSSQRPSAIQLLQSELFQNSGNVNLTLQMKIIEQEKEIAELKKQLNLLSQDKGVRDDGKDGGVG
Sequence of FLT4 (P35916 25-1363): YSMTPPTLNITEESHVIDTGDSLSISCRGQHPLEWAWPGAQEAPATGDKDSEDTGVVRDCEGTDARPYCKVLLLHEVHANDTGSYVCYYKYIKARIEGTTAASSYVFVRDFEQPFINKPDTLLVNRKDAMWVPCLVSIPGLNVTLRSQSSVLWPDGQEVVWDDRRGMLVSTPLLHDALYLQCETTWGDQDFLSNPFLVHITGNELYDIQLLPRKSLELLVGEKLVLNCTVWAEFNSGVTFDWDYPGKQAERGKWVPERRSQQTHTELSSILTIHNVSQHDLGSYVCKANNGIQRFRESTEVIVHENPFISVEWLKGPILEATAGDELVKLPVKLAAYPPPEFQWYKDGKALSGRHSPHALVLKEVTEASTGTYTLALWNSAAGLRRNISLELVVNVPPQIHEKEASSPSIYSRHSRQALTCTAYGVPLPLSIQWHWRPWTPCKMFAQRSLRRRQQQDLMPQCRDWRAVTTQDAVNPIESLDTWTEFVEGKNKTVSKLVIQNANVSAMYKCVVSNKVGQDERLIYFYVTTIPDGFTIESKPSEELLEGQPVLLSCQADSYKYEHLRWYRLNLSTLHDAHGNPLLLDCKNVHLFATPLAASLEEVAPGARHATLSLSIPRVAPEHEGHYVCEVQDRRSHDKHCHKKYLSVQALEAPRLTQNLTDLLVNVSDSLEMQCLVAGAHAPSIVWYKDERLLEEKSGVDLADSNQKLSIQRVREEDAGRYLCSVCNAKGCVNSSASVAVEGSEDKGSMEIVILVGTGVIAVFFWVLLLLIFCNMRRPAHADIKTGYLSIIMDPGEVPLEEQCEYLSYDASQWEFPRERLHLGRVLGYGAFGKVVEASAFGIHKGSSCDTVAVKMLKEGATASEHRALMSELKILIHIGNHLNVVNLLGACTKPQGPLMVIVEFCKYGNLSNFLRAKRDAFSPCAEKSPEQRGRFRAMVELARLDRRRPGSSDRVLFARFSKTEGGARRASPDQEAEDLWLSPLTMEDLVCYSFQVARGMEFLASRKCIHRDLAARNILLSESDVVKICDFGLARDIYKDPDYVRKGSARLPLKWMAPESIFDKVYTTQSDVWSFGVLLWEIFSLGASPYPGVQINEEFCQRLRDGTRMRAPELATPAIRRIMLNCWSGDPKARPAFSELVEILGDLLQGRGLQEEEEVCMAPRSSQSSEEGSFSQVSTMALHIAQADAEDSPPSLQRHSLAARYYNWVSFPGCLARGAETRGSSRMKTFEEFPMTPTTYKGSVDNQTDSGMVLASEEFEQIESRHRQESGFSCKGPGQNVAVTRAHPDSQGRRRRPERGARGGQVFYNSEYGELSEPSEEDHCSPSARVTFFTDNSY
Sequence of EPHA5 (P54756 25-1037): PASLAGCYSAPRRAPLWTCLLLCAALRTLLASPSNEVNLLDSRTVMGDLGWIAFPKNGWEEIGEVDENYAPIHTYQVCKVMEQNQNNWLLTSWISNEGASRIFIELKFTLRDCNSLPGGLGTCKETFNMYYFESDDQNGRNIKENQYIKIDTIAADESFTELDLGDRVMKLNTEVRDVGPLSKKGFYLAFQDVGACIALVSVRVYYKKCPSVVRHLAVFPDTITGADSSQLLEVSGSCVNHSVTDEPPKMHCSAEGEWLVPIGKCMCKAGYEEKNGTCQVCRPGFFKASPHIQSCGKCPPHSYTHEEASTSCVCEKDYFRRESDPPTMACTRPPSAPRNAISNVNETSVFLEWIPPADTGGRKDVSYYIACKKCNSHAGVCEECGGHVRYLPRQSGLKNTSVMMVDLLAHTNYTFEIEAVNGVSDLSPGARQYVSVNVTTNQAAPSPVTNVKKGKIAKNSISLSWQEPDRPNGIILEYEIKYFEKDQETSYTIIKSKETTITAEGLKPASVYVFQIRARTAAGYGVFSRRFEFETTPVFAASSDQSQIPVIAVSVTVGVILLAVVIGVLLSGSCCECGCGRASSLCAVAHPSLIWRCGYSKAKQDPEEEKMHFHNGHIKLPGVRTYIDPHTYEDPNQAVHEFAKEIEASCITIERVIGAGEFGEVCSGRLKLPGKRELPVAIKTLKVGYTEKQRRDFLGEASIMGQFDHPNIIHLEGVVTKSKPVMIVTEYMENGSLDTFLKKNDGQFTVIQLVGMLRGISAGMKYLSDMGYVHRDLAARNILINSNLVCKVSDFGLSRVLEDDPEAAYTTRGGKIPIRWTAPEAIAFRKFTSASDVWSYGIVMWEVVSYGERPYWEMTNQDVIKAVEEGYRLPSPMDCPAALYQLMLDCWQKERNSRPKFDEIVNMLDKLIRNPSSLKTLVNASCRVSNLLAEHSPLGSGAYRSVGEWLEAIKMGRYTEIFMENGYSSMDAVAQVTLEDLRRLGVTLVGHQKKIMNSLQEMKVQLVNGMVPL

For `CNc1c(-c2ccc(C(=O)N3CCC(N4CCOCC4)CC3)cc2)cnc2[nH]cc(Cl)c12` [Compound 96, (4-(3-chloro-4-(methylamino)-1H-pyrrolo[2,3-b]pyridin-5-yl)phenyl)(4-morpholinopiperidin-1-yl)methanone], the remaining binding at 1 µM was found to be 100% in [1]; 100% on EIF2AK1; 100% on EPHA3; 100% at EPHA5; 66% at FLT4; 100% on MRCKA. The remaining binding at 1 µM was determined as 59% at RET(V804L), 48% at TRKB, 8.7% on ULK2 and 73% on WNK3.

For `O=C(c1ccc(-c2cnc3[nH]cc(Cl)c3c2NC2CCCC2)cc1)N1CCC(N2CCOCC2)CC1` [Compound 101, (4-(3-chloro-4-(cyclopentylamino)-1H-pyrrolo[2,3-b]pyridin-5-yl)phenyl)(4-morpholinopiperidin-1-yl)methanone], the remaining binding at 1 µM was 100% in assay [1]; 100% at EIF2AK1; 82% at EPHA3; 98% at EPHA5; 100% at FLT4; 100% on MRCKA. In addition, the remaining binding at 1 µM at RET(V804L) is 97%; on TRKB it was 100%; on ULK2, 98%; at WNK3 it was 92%.

In the case of `CNc1c(-c2cnn([C@H]3CCN(C(C)=O)C[C@@H]3F)c2)cnc2[nH]cc(Cl)c12` [Compound 77, 1-((3S,4S)-4-(4-(3-chloro-4-(methylamino)-1H-pyrrolo[2,3-b]pyridin-5-yl)-1H-pyrazol-1-yl)-3-fluoropiperidin-1-yl)ethan-1-one], the remaining binding at 1 µM in [1] worked out at 81%; at EIF2AK1, 100%; on EPHA3, 90%; on EPHA5 it was 96%; on FLT4, 47%; on MRCKA, 100%. In addition, the remaining binding at 1 µM at RET(V804L) was determined as 45%; at TRKB, 23%; on ULK2, 15%; at WNK3, 86%.
